{"source": "ChEMBL document CHEMBL5331063", "about": "“Recent advances of β-catenin small molecule inhibitors for cancer therapy: Current development and future perspectives” (Eur J Med Chem, 2022)", "key": {"TCF4-CTNNB1 complex [1]": {"molecular_target": "T1, TCF4-CTNNB1 complex (Homo sapiens, UniProt P35222+Q9NQB0)", "T1 sequence (P35222 whole entry)": "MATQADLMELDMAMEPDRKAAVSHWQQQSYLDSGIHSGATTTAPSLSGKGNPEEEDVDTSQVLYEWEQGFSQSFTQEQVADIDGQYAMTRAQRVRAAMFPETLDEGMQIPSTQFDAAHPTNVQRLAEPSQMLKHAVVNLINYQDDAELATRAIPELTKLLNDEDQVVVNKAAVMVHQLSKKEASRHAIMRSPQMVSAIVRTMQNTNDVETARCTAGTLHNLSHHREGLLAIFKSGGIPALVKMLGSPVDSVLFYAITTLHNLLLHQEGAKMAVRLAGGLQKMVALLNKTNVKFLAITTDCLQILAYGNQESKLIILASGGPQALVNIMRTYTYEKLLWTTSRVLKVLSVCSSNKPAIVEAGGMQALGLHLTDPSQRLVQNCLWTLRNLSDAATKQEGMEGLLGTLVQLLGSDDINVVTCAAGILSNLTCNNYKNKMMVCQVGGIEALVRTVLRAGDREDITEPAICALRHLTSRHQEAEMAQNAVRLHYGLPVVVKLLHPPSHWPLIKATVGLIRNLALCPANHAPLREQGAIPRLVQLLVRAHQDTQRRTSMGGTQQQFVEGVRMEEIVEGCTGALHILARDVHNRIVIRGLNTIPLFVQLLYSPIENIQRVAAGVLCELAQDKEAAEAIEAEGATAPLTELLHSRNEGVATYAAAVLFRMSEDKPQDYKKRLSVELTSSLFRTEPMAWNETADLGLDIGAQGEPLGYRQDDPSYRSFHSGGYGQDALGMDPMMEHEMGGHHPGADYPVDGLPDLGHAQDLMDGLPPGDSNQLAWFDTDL", "T1 sequence (P15884 whole entry)": "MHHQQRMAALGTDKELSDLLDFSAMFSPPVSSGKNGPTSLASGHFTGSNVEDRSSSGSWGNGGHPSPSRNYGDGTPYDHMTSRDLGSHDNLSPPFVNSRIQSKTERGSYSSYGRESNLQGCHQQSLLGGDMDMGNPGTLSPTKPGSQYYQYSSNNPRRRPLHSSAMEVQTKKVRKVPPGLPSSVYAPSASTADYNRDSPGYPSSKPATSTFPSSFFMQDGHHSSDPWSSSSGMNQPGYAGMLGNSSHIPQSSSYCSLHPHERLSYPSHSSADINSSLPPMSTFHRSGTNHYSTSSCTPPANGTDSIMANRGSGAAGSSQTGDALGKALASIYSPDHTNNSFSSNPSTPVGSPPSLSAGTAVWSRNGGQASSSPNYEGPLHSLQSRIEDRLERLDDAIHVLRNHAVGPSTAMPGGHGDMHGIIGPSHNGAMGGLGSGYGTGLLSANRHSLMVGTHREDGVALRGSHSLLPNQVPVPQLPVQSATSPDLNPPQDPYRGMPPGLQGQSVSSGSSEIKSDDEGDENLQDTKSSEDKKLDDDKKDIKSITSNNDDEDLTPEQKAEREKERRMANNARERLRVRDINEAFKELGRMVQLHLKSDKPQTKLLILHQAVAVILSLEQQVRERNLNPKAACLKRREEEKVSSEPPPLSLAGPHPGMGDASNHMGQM", "assay": "Inhibition of human beta-Catenin/GST-tagged TCF4 (unknown origin) protein-protein interaction incubated for 2 hrs by ELISA assay", "format": "protein-complex assay"}, "TCF4-CTNNB1 complex [2]": {"molecular_target": "T1, TCF4-CTNNB1 complex", "assay": "Inhibition of beta-Catenin/GST-tagged TCF4 protein-protein interaction in human HCT-116 cells incubated for 24 hrs by immunoprecipitation assay", "format": "cell-based"}, "SW480": {"test_system": "SW480", "assay": "Antiproliferative activity against human SW480 cells assessed as inhibition of cell growth by MTS assay", "format": "functional, cell-based"}, "[3]": {"assay": "Inhibition of human beta-Catenin (138 to 686 residues)/C-terminal fluorescein-labeled human APC (1477 to 1519 residues) protein-protein interaction assessed as inhibition constant incubated for 30 mins by fluorescence polarization assay"}, "[4]": {"molecular_target": "T2, Catenin beta-1/Cadherin-1 (Homo sapiens, UniProt P35222)", "T2 sequence (P35222 whole entry)": "T1 sequence (P35222 whole entry)", "T2 sequence (P12830 whole entry)": "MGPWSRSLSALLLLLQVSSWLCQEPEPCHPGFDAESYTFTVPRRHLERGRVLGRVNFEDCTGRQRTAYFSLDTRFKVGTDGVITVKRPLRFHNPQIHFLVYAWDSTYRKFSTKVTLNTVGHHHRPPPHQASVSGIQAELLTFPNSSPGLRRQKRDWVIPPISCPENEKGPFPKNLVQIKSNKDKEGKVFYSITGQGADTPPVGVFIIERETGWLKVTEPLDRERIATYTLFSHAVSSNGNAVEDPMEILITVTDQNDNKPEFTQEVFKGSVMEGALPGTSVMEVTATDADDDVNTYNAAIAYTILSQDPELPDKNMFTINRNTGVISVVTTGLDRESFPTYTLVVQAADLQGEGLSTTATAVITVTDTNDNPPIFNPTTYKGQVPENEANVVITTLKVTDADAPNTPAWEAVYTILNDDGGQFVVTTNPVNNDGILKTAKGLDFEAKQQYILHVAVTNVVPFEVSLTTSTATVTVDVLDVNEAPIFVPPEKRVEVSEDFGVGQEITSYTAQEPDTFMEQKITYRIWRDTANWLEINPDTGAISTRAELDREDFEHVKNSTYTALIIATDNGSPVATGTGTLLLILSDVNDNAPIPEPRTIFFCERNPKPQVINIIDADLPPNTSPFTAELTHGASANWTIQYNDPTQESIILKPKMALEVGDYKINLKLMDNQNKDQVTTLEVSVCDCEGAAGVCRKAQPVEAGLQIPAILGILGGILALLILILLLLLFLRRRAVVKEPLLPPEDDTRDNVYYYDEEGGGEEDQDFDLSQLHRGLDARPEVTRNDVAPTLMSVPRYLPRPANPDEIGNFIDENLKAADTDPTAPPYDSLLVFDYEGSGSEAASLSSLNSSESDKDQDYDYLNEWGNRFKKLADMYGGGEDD", "assay": "Inhibition of His6-tagged human beta-Catenin (138 to 686 residues)/C-terminal fluorescein-labeled human E-cadherin (819 to 873 residues) protein-protein interaction assessed as inhibition constant by AlphaScreen competitive assay"}, "TCF4-CTNNB1 complex [5]": {"molecular_target": "T3, TCF4-CTNNB1 complex (Homo sapiens, UniProt P15884+P35222)", "T3 sequence (P35222 whole entry)": "T1 sequence (P35222 whole entry)", "T3 sequence (P15884 whole entry)": "T1 sequence (P15884 whole entry)", "assay": "Inhibition of beta-Catenin (301 to 670 residues)/TCF4 protein-protein interaction in human HCT-116 cells incubated for 20 hrs by TOPFLASH luciferase reporter assay", "format": "cell-based"}, "[6]": {"assay": "Inhibition of Wnt1 signalling in human SW480 cells expressing ST-Luc incubated for 24 hrs by luciferase reporter assay", "format": "cell-based", "conditions": "SW480, 24 h"}, "TCF4-CTNNB1 complex [7]": {"molecular_target": "T1, TCF4-CTNNB1 complex", "assay": "Inhibition of beta-Catenin/TCF4 (unknown origin) protein-protein interaction", "format": "protein-complex assay"}}, "data": [{"smiles": "COC(=O)c1c(C)cc2c(c1O)[C@]1(O)C(=O)c3cc4c(c(O)c3C(=O)[C@]1(OC)[C@H](O)C2)C(=O)C=C(N[C@@H]1O[C@H](C)[C@@H](OC)[C@H](O)[C@@H]1OC)C4=O", "values": [{"measurement": "IC50", "setting": "TCF4-CTNNB1 complex [1]", "result": 0.64, "unit": "µM"}]}, {"smiles": "COc1c(CC(C)OC(=O)Oc2ccc(O)cc2)c2c3c(CC(C)OC(=O)c4ccccc4)c(OC)c(=O)c4c(O)cc(OC)c(c5c(OC)cc(O)c(c1=O)c52)c43", "note": "(stereo not drawn)", "values": [{"measurement": "IC50", "setting": "TCF4-CTNNB1 complex [2]", "result": 10, "unit": "µM"}]}, {"smiles": "COC(=O)[C@H](CCC(=O)O)NC(=O)[C@H](CC(=O)O)NC(=O)[C@H](Cc1ccc2ccccc2c1)NC(=O)Cc1cc2cc(Cl)ccc2[nH]1", "values": [{"measurement": "IC50", "setting": "SW480", "result": 232, "unit": "µM"}, {"measurement": "Ki", "setting": "[3]", "result": 86.6, "unit": "µM"}]}, {"smiles": "O=C(Nc1ccc(O[C@H]2CCNC2)c(-c2ccc(F)cc2)c1)c1ccc(O[C@H]2CCNC2)c(-c2ccc(F)c(F)c2)c1", "values": [{"measurement": "Ki", "setting": "[4]", "result": 260, "unit": "µM"}]}, {"smiles": "COC(=O)c1cccc(NS(=O)(=O)c2ccc(C)cc2)c1", "values": [{"measurement": "IC50", "setting": "TCF4-CTNNB1 complex [5]", "result": 0.583, "unit": "µM"}]}, {"smiles": "C=C1C(=O)[C@@]23[C@H](O)C[C@@H]4C(C)(C)CC[C@H](O)[C@@]4(COC(C)=O)[C@@H]2CC[C@H]1[C@H]3O", "values": [{"measurement": "IC50", "setting": "[6]", "result": 0.6, "unit": "µM"}]}, {"smiles": "C[C@H]1[C@H]2N(C(=O)CN(C)N2C(=O)NCc2ccccc2)[C@@H](Cc2ccc(OP(=O)(O)O)cc2)C(=O)N1Cc1cccc2cccnc12", "values": [{"measurement": "IC50", "setting": "TCF4-CTNNB1 complex [7]", "result": 0.15, "unit": "µM"}]}]}
